# In US9951110B2, “Neuropeptides useful as insecticides” (THE STATE OF ISRAEL, MINISTRY OF AGRICULTURE & RURAL …, priority 2013, dated 2018):
# Square brackets hold non-standard residues; d marks the D form. Ends that are not written are not given here. * marks the point of attachment. Cyclohexyl = cyclohexyl group capping the N-terminus, C1CCC(*)CC1; Fmoc = O=C(OCC1c2ccccc2-c2ccccc21)*
# Experiments:
# [1] = tested on: Spodoptera littoralis larvae; experiment: Melanotropic inhibitory activity: injection with a stimulator (PBAN, PT, LPK, DH); format: in vivo; conditions: for Melanotropic inhibitory activity, stimulator DH: injected with DH (diapause hormone); for Melanotropic inhibitory activity, stimulator DH / Melanotropic inhibitory activity, stimulator LPK / Melanotropic inhibitory activity, stimulator PBAN / Melanotropic inhibitory activity, stimulator PT: 100 pm; for Melanotropic inhibitory activity, stimulator LPK: injected with LPK (leucopyrokinin); for Melanotropic inhibitory activity, stimulator PBAN: injected with PBAN, inhibition = 100 minus % melanization with vs without peptide; for Melanotropic inhibitory activity, stimulator PT: injected with PT (pheromonotropin); for inhibition of melanin synthesis stimulated by LPK: stimulator LPK; for inhibition of melanin synthesis stimulated by PBAN: stimulator PBAN; for inhibition of melanin synthesis stimulated by PT: stimulator PT
# Description: FIG. 12. is a graph showing the melanotropic inhibitory activity of the peptides of the invention against different stimulators of the PK/PBAN family: PBAN, PT (pheromonotropin), LPK (leucopyrokinin), DH (diapause hormone). • Degree of cuticular melanization is expressed as a percentage of the melanization obtained by injection the elicitor itself (PBAN, PT, LPK or DH) in the absence of the tested peptide (not shown). Statistical analysis compared the degree of melanization in the presence and absence of the tested peptide with any given elicitor. An asterisk indicates a significant difference between the degree of melanization obtained in the presence of the peptide. This assay is used to test the agonistic properties of the tested peptides (in adult females), and to determine the peptides melanotropic agonistic or antagonistic properties (in larvae). It was also used to determine the activity of peptides that were stored outdoors for different amounts of time. The peptides are injected into either adult female insects (e.g. moths) at photophase (when pheromone is not synthesized naturally, but the insect has the ability to produce pheromone upon stimulation with a agonist) or into 5th instar larvae. Agonistic properties were tested by injection of the peptides alone; antagonistic properties were determined by injection of the peptide together with a stimulator. The ability of the peptides to inhibit cuticular melanin synthesis was tested in Spodoptera littoralis larvae. Inhibitory activity was tested by injecting the peptides to Spodoptera littoralis larvae together with a given stimulator: PBAN, PT, LPK and DH. Inhibition is expressed as 100 minus the ratio in percentage (%) between the extents of cuticular melanization obtain in the presence and absence of the tested peptide (Table 2).
# [2] = tested on: Heliothis peltigera female moths; experiment: Topical application: inhibition of sex pheromone biosynthesis (cuticular bioavailability); format: in vivo; conditions: for comparison of activity in IIS vs. tap water: topical application; for inhibition of pheromone biosynthesis / lowering of pheromone content compared to the solvent: 10 pmol
# Procedure: FIG. 2. is a graph showing the effect of topically applied peptides on the inhibition of sex pheromone biosynthesis in Heliothis peltigera female moths. • The tested peptides are those listed in Table 1 (1-10, respectively). • Peptides were tested at a concentration of 10 pmol and were applied in IIS (0.5% ethanol, 0.05% Tween-80 in DDW), and DDW for 1 h. • Sex pheromone content is expressed as a percentage of the endogenous pheromone content obtained using control untreated moths (defined as 100%). Statistical analysis compared pheromone content in the presence of each peptide with that obtained with the corresponding solvents themselves (indicated by an asterisk).
# FIG. 3A and FIG. 3B are graphs showing the dose response of Ac-A-dPhe-4 (3A) or Ac-A-dPhe-6 (3B) on inhibition of sex pheromone biosynthesis in Heliothis peltigera female moths. Peptides were applied in DDW for 1 h. • Sex pheromone content is expressed as a percentage of the endogenous pheromone content obtained using control untreated moths (defined as 100%). Statistical analysis compared pheromone content in the presence of each peptide at the indicated concentrations with that obtained with the solvent itself (indicated by an asterisk). A similar statistical analysis was also made against the pheromone content of untreated moths (indicated by #). […] Differences in the potency of the peptides at the indicated concentrations are depicted by letters.
# FIG. 4. is a graph showing the time response of 1 nmol Ac-A-dPhe-4 and Ac-A-dPhe-6 (applied in DDW) on inhibition of sex pheromone biosynthesis in Heliothis peltigera female moths. • Sex pheromone content is expressed as a percentage of the endogenous pheromone content obtained using control untreated moths (defined as 100%). Statistical analysis compared pheromone content in the presence of each peptide at the indicated times with that obtained with the solvent itself at the same time point (indicated by an asterisk). […] Differences in the potency of the peptides at the indicated time points are depicted by letters. (Ac-A-dPhe-4: small letters; Ac-A-dPhe-6: capital letters).
# FIG. 5A to FIG. 5C are graphs showing the effect of topically applied peptides on inhibition of sex pheromone biosynthesis in Heliothis peltigera female moths. • The tested peptides are those listed in Table 1 (1-6, respectively). Peptides were tested at a concentration of 1000 pmol (5A), 300 pmol (5B) or 100 pmol (5C) and were applied in DDW, DMSO and IIS for 7h. • Sex pheromone content is expressed as a percentage of the endogenous pheromone content obtained using control untreated moths (defined as 100%). Statistical analysis compared pheromone content in the presence of each peptide in a given solvent (DDW, DMSO or ITS) with that obtained with the solvents themselves (indicated by an asterisk).
# a) Topical Application (TA)
# This assay is used to determine cuticular penetrability.
# The tested peptides are applied onto the insect (e.g. moths) at scotophase (when pheromone is naturally synthesized) in a given solvent for the indicated times.
# Antagonistic activity was tested at a concentration of 10 pmol and the peptides were topically applied in two solvents: DDW and IIS (FIG. 2). […] Ac-A-dPhe-6 was the second best in IIS inhibiting pheromone biosynthesis by 74%.
# Only minor differences in activity is observed as a function of a dose (with the exception of Ac-A-dPhe-4 at 1000 pmol, which inhibited pheromone production to a lesser extent of about 50%).
# All experiments were carried out at the scotophase and the peptides were applied one hour before pheromone glands were excised (+5) and tested for pheromone content (at the 6th hour of the scotophase when the pheromone content is at its highest level). The high inhibition obtained under the tested conditions, indicates the extremely fast and high penetrability and bioactivity of the peptides of the invention. […]
Substance,"Melanotropic inhibitory activity, stimulator DH [1]","Melanotropic inhibitory activity, stimulator LPK [1]","Melanotropic inhibitory activity, stimulator PBAN [1]","Melanotropic inhibitory activity, stimulator PT [1]",inhibition of melanin synthesis stimulated by LPK [1],inhibition of melanin synthesis stimulated by PBAN [1],inhibition of melanin synthesis stimulated by PT [1],comparison of activity in IIS vs. tap water [2],"inhibition of pheromone biosynthesis ([2]; topical, in IIS, 1 h)","potency as a function of application time ([2]; topical, 1 nmol in DDW, 1, 3 and 7 h)","inhibition of pheromone production ([2]; topical in DDW, 1 h, 1000 pmol)","inhibition of pheromone biosynthesis ([2]; topical, in DDW, 1 h)","activity as a function of the dose ([2]; topical, 7 h, in IIS and DMSO, 100, 300, 1000 pmol)","lowering of pheromone content compared to the solvent ([2]; topical, in DDW, 1 h)","lowering of pheromone content compared to the solvent ([2]; topical, in IIS, 1 h)","activity as a function of carrier ([2]; topical, 300 pmol, 7 h, DDW, IIS, DMSO)"
Acetyl-Ala-Ser-Pro-[dPhe]-Leu-amide (Ac-ASP[dF]L-NH2; SMILES CC(=O)N[C@@H](C)C(=O)N[C@@H](CO)C(=O)N1CCC[C@H]1C(=O)N[C@H](Cc1ccccc1)C(=O)N[C@@H](CC(C)C)C(N)=O) [Ac-A-dPhe-6],29%,0%,63%,100%,inhibited LPK,inhibited PBAN,inhibited PT,No differences,74%,did not differ,,,,,,
Acetyl-Ala-[dPhe]-Pro-Arg-Leu-amide (Ac-A[dF]PRL-NH2; SMILES CC(=O)N[C@@H](C)C(=O)N[C@H](Cc1ccccc1)C(=O)N1CCC[C@H]1C(=O)N[C@@H](CCCNC(=N)N)C(=O)N[C@@H](CC(C)C)C(N)=O) [Ac-A-dPhe-4],6%,31%,54%,100%,inhibited LPK,inhibited PBAN,inhibited PT,No differences,,,about 50%,83%,less active at 100 pmol compared to 300 and 1000 pmol,,,
Acetyl-Arg-Tyr-Phe-Ser-Pro-[dPhe]-Leu-amide (Ac-RYFSP[dF]L-NH2; SMILES CC(=O)N[C@@H](CCCNC(=N)N)C(=O)N[C@@H](Cc1ccc(O)cc1)C(=O)N[C@@H](Cc1ccccc1)C(=O)N[C@@H](CO)C(=O)N1CCC[C@H]1C(=O)N[C@H](Cc1ccccc1)C(=O)N[C@@H](CC(C)C)C(N)=O) [Ac-dPhe-6],35%,8%,59%,100%,,,,,,,,,,,,
Acetyl-Arg-Tyr-Phe-[dPhe]-Pro-Arg-Leu-amide (Ac-RYF[dF]PRL-NH2; SMILES CC(=O)N[C@@H](CCCNC(=N)N)C(=O)N[C@@H](Cc1ccc(O)cc1)C(=O)N[C@@H](Cc1ccccc1)C(=O)N[C@H](Cc1ccccc1)C(=O)N1CCC[C@H]1C(=O)N[C@@H](CCCNC(=N)N)C(=O)N[C@@H](CC(C)C)C(N)=O) [Ac-dPhe-4],22%,51%,70%,100%,,inhibited PBAN,inhibited PT,,,,,,,,,
Arg-Tyr-Phe-Ser-Pro-[dPhe]-Leu-amide (RYFSP[dF]L-NH2; N-terminus assumed; SMILES CC(C)C[C@H](NC(=O)[C@@H](Cc1ccccc1)NC(=O)[C@@H]1CCCN1C(=O)[C@H](CO)NC(=O)[C@H](Cc1ccccc1)NC(=O)[C@H](Cc1ccc(O)cc1)NC(=O)[C@@H](N)CCCNC(=N)N)C(N)=O) [dPhe-6],15%,78%,49%,74%,,,,,,,,,,failed to lower pheromone content,,
Arg-Tyr-Phe-[dPhe]-Pro-Arg-Leu-amide (RYF[dF]PRL-NH2; N-terminus assumed; SMILES CC(C)C[C@H](NC(=O)[C@H](CCCNC(=N)N)NC(=O)[C@@H]1CCCN1C(=O)[C@@H](Cc1ccccc1)NC(=O)[C@H](Cc1ccccc1)NC(=O)[C@H](Cc1ccc(O)cc1)NC(=O)[C@@H](N)CCCNC(=N)N)C(N)=O) [dPhe-4],33%,10%,18%,59%,,,,,,,,,,,failed to lower pheromone content,lower activity in DDW and IIS compared to DMSO
Cyclohexyl-Ala-Ser-Pro-[dPhe]-Leu-amide (Cyclohexyl-ASP[dF]L-NH2; SMILES CC(C)C[C@H](NC(=O)[C@@H](Cc1ccccc1)NC(=O)[C@@H]1CCCN1C(=O)[C@H](CO)NC(=O)[C@H](C)NC1CCCCC1)C(N)=O) [Cyc-A-dPhe-6],15%,100%,67%,26%,inhibited LPK,inhibited PBAN,,,,,,,,,,
Cyclohexyl-Ala-[dPhe]-Pro-Arg-Leu-amide (Cyclohexyl-A[dF]PRL-NH2; SMILES CC(C)C[C@H](NC(=O)[C@H](CCCNC(=N)N)NC(=O)[C@@H]1CCCN1C(=O)[C@@H](Cc1ccccc1)NC(=O)[C@H](C)NC1CCCCC1)C(N)=O) [Cyc-A-dPhe-4],15%,100%,7%,6%,inhibited LPK,,,No differences,,,,,,,failed to lower pheromone content,
Fmoc-Ala-Ser-Pro-[dPhe]-Leu-amide (Fmoc-ASP[dF]L-NH2; SMILES CC(C)C[C@H](NC(=O)[C@@H](Cc1ccccc1)NC(=O)[C@@H]1CCCN1C(=O)[C@H](CO)NC(=O)[C@H](C)NC(=O)OCC1c2ccccc2-c2ccccc21)C(N)=O) [Fmoc-A-dPhe-6],35%,100%,67%,100%,,,,,,,,,,,,
Fmoc-Ala-[dPhe]-Pro-Arg-Leu-amide (Fmoc-A[dF]PRL-NH2; SMILES CC(C)C[C@H](NC(=O)[C@H](CCCNC(=N)N)NC(=O)[C@@H]1CCCN1C(=O)[C@@H](Cc1ccccc1)NC(=O)[C@H](C)NC(=O)OCC1c2ccccc2-c2ccccc21)C(N)=O) [Fmoc-A-dPhe-4],28%,100%,68%,100%,,,,No differences,,,,,,,,
